Experiments:
[1] = system: MCF10A ER-Src xenograft tumors
[2] = system: cancer stem cells (CD44high/CD24low) from MCF10A-ER-Src tumors; details: after 3 cycles of treatment (day 25); FIG. 4B
[3] = system: cancer stem cells (CD44high/CD24low) and cancer cells (CD44low/CD24high) of transformed MCF-10A or MCF-7 cells; details: doxorubicin, 0.1 mM metformin, or both; FIG. 3A
[4] = system: MCF10A ER-Src cells; assay: Morphological transformation of TAM-induced MCF10A ER-Src cells (phase-contrast); format: cell-based, human; details: 0.1 mM metformin and/or TAM for 36 hours; data not shown
[5] = system: MCF10A-ER-Src cells; assay: Focus formation of TAM-treated MCF10A-ER-Src cells (FIG. 1B); format: cell-based, human
[6] = system: MCF10A-ER-Src cells; assay: Mammosphere formation (FIG. 1B); format: cell-based, human; details: TAM-treated cells
[7] = general statement; cited from earlier work
[8] = system: MCF10A-ER-Src cancer stem cells; assay: Tumor formation in nude mice by metformin-pretreated cancer stem cells (FIG. 3C); format: in vivo; details: cells treated with 0.1 mM metformin for 1 hour prior to injection, month after injection
[9] = system: MCF10A ER-Src cells; assay: Wound healing motility / invasion assay; format: cell-based, human; details: 0.1 mM metformin and/or TAM; data not shown
[10] = system: mammospheres derived from all four breast cancer cell lines (MCF10A ER-Src, MCF7, SKBR3, MDA-MB-468); assay: Mammosphere growth, 6-day old mammospheres (FIG. 2); format: cell-based, human; details: 0.1 mM metformin, within 48 hours
[11] = system: non-transformed cells (MCF10A-ER-Src); assay: Growth of non-transformed MCF10A-ER-Src cells with metformin (FIG. 1A); format: cell-based, human; details: 0.1 or 0.3 mM metformin, 24 hours
[12] = system: MCF10A ER-Src cells; assay: Colony formation assay in soft agar (FIG. 1B); format: cell-based, human; details: TAM-treated cells
[13] = system: sorted cancer stem cells and non-stem cancer cells of MCF10A ER-Src, MCF7, SKBR3 and MDA-MB-468; assay: Growth of sorted cancer stem cells and non-stem cancer cells (FIG. 3B); format: cell-based, human; details: 0.1 mM metformin, 0, 24, 48 hours, all four cancer cell lines

SMILES	decrease in tumor volume ([1]; after 15 days of treatment (3 cycles every 5 days, i.p.), 4 mg/kg doxorubicin)	time until tumor growth resumed after treatment ([1]; after treatment with doxorubicin alone, FIG. 4A)	rate of tumor growth after relapse ([1]; compared with absence of treatment)	tumor volume after an additional 10 days ([1]; day 35)	cancer stem cells in tumors [2]	killing of cancer stem cells versus cancer cells in the mixed transformed population [3]	morphological transformation [4]	focus formation [5]	generation of mammospheres [6]	crossing of the blood brain barrier [7]	effect on tumors / tumor volume ([1]; after 15 days of treatment (3 cycles every 5 days, i.p.), 4 mg/kg doxorubicin, 100 μg/ml metformin, or both)	ability of cancer stem cells to form tumors in nude mice [8]	invasive growth in wound-healing assays [9]	number of mammospheres [10]	growth of non-transformed cells [11]	formation of colonies in soft agar [12]	effect on sorted standard (non-stem) cancer cell population [13]	susceptibility of sorted cancer stem cells [13]
COc1cccc2c1C(=O)c1c(O)c3c(c(O)c1C2=O)C[C@@](O)(C(=O)CO)C[C@@H]3O[C@H]1C[C@H](N)[C@H](O)[C@H](C)O1 [doxorubicin]	2 fold	20 days	comparable to that observed in the initial disease	further reduction in tumor volume	easily detected	kills cancer cells, but not cancer stem cells												
CN(C)C(=N)N=C(N)N [metformin]						preferentially killed cancer stem cells	strongly inhibited	strongly inhibited	strongly inhibited	can cross the blood brain barrier	little effect	blocked the ability of these cells to form tumors	strongly inhibited	dramatic reduction in the number of mammospheres	does not affect the growth of non-transformed cells	strongly inhibited	essentially unaffected	quite susceptible

From US20120220664A1, “USE OF METFORMIN IN CANCER TREATMENT AND PREVENTION” (priority 2009, published 2012)
